The experiment addresses T1, Ectonucleotide pyrophosphatase/phosphodiesterase family member 1 (Homo sapiens, UniProt P22413).
T1 sequence (P22413 whole entry): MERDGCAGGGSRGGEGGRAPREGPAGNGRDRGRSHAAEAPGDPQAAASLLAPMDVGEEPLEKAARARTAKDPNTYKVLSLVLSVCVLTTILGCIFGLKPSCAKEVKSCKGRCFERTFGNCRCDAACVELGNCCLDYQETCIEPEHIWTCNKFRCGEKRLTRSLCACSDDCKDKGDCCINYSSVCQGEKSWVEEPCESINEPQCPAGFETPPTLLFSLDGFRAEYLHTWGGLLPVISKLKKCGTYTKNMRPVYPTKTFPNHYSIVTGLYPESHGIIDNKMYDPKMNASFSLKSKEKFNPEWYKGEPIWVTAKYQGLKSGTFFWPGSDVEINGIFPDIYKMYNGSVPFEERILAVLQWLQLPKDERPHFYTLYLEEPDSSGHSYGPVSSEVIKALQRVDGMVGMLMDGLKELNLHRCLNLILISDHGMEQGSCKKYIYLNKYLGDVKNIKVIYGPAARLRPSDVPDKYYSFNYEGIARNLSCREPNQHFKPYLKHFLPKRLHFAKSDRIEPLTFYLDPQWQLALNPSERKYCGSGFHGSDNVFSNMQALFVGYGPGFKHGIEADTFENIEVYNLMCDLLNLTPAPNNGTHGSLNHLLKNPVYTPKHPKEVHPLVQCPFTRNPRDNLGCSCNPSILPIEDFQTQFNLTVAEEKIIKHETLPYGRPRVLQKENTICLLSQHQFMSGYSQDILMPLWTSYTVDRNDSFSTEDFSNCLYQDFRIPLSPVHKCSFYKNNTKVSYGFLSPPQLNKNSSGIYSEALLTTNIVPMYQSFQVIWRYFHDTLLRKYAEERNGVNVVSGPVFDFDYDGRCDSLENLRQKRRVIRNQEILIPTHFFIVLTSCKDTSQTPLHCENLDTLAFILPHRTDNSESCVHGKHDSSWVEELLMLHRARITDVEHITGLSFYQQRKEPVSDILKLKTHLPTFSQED
Put plainly: ENPP1 Enzyme Assay with eGAMP Substrate. The protocol: ENPP1 hydrolyzes nucleotides or nucleotide derivatives to produce nucleoside -5′-monophosphate and pyrophosphate. in addition, ENPP1 hydrolyzes 2′,3′-cGAMP to produce 5′-adenosine monophosphate (AMP) and 5′-guanosine monophosphate (GMP). AMP produced from the reaction is measured using the AMP-Glo kit (Promega). The AMP-Glo kit contains two reagents. The first reagent terminates the AMP-producing enzymatic reaction, removes ATP and converts the produced AMP into ADP. The second reagent converts ADP to ATP which is used to generate luminescence in the luciferase reaction. […] CaCl2, 1 μM ZnCl2, 5% glycerol and 1% DMSO. […] The reaction was initiated by addition of cGAMP (at a final concentration of 5 μM) and reacted at 37 C. for 90 minutes. At the end of the reaction, 10 μl of the AMP-Glo first reagent was added to stop the reaction and the result was stored at room temperature for […]. After storage, 20 μl of an AMP detection solution (a mixture of AMP-Glo II reagent and Kinase-Gio at a ratio of 1:100) was added and stored at room. temperature for 1 hour. Luminescence signals were measured using a Victor plate reader (Perkin Elmer). The maximal activity control (containing enzymes and substrates only in the presence of 1% DMSO; MAX) and the minimal activity control (containing substrates and 1% DMSO; MIN) were evaluated simultaneously. In each experiment, serially diluted reference ENPP1 inhibitors were tested together. IC50, indicating % residual activity versus compound concentration was determined by fitting inhibition curves using the 3-parameter analysis of GraphPad Prism software. Serially diluted samples of one compound were tested two or more times and an average IC50 of each compound was calculated.

A value given as a limit tells only on which side of the number the result lay.

On to `NS(=O)(=O)Nc1cccc(-c2n[nH]c(=O)c3ccccc23)c1` [US20230159469, Example 87], for which the IC50 (in general, the concentration needed to halve the response being measured) was less than 1000 nM.

Compound `N=S(=O)(O)NCc1ccc(-c2n[nH]c(=O)c3ccccc23)cc1` [US20230159469, Example 96] returned an IC50 of less than 1000 nM.

`COc1cc2c(-c3ccc(CNS(=N)(=O)O)cc3)nn(C)c(=O)c2cc1OC` [US20230159469, Example 108] showed an IC50 of no less than 1000 nM.

These data come from BindingDB's records for patent US20230159469 (Txinno Bioscience, 2023).
